ChEMBL document CHEMBL3774369, “Tetrahydroisoquinoline Phenols: Selective Estrogen Receptor Downregulator Antagonists with Oral Bioavailability in Rat” (ACS Med Chem Lett, 2016)
pIC50: −log10 of the molar value.

Assays:
[1] = Percentage unbound in Han Wistar rat plasma by equilibrium dialysis method; type: ADME, cell-free
[2] = Percentage unbound in human plasma by equilibrium dialysis method; type: ADME, cell-free
[3] = Intrinsic clearance in Han Wistar rat hepatocytes assessed per 10^6 cells; type: ADME, cell-based, Hepatocyte; details: read-out: CLH
[4] = Intrinsic clearance in human hepatocytes assessed per 10^6 cells; type: ADME, cell-based, Hepatocyte; details: read-out: CLH
physchem = details: buffer, pH 7.4
in vivo = details: rat, po, 1 mg/kg
[5] = Clearance in rat at 0.5 mg/kg, iv or 1 mg/kg, po; type: ADME, organism-based; details: in vivo
[6] = Volume of distribution at steady state in rat at 0.5 mg/kg, iv or 1 mg/kg, po; type: ADME, organism-based; details: in vivo, read-out: Vdss
[7] = Half life in rat at 1 mg/kg, po; type: ADME, organism-based; details: in vivo
[8] = Half life in rat at 0.5 mg/kg, iv; type: ADME, organism-based; details: in vivo
Adenosine receptor A1 = target: T1, Adenosine receptor A1 (Homo sapiens, UniProt P30542); assay: Inhibition of recombinant human adenosine receptor A1 expressed in CHO cells; type: cell-based
T1 sequence (P30542 whole entry): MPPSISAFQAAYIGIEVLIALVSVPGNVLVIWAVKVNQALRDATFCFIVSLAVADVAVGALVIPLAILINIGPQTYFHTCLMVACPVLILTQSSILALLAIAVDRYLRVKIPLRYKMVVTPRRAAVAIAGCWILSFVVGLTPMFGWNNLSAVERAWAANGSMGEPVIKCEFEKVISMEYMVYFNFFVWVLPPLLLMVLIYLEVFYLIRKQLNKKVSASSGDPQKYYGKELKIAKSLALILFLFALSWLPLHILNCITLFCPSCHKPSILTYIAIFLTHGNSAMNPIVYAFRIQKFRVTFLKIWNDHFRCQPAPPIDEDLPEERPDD

B2 bradykinin receptor = target: T2, B2 bradykinin receptor (Homo sapiens, UniProt P30411); assay: Inhibition of recombinant human bradykinin receptor 2 expressed in CHO cells; type: cell-based
T2 sequence (P30411 whole entry): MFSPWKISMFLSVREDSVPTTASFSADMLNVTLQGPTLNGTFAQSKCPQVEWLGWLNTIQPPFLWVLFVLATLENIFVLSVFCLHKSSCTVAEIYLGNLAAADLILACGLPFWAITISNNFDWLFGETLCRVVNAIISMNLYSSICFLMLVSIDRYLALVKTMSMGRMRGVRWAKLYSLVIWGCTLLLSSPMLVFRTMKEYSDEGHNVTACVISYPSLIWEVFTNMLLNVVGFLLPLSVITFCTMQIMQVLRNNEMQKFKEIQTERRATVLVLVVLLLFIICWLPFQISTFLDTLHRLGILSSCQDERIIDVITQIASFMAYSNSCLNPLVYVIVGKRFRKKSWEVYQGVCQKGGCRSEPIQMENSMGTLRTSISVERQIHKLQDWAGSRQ

Mu-type opioid receptor = Mu-type opioid receptor (Homo sapiens, UniProt P35372); assay: Inhibition of human recombinant mu1 opioid receptor expressed in HEK293 cells; type: cell-based
Mu-type opioid receptor, sequence (P35372 whole entry): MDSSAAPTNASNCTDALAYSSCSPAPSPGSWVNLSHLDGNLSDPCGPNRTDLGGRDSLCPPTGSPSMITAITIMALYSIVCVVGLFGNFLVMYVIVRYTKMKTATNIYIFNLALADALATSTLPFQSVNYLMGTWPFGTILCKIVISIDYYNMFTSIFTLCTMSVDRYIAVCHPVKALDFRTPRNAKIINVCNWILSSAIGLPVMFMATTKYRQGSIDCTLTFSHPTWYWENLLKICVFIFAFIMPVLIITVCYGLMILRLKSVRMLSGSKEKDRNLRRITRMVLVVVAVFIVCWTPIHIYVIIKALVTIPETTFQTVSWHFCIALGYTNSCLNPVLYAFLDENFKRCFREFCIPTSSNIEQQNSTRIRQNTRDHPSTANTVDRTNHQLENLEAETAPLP

[9] = Solubility of compound in aqueous phosphate buffer at pH 7.4 after 24 hrs; type: physicochemical
[10] = Inhibition of cytochrome P450 (unknown origin); type: ADME, Homo sapiens
[11] = target: Voltage-gated inwardly rectifying potassium channel KCNH2 (Homo sapiens, UniProt Q12809); assay: Inhibition of human ERG tail current by plate-based planar patch clamp system
Voltage-gated inwardly rectifying potassium channel KCNH2, sequence (Q12809 whole entry): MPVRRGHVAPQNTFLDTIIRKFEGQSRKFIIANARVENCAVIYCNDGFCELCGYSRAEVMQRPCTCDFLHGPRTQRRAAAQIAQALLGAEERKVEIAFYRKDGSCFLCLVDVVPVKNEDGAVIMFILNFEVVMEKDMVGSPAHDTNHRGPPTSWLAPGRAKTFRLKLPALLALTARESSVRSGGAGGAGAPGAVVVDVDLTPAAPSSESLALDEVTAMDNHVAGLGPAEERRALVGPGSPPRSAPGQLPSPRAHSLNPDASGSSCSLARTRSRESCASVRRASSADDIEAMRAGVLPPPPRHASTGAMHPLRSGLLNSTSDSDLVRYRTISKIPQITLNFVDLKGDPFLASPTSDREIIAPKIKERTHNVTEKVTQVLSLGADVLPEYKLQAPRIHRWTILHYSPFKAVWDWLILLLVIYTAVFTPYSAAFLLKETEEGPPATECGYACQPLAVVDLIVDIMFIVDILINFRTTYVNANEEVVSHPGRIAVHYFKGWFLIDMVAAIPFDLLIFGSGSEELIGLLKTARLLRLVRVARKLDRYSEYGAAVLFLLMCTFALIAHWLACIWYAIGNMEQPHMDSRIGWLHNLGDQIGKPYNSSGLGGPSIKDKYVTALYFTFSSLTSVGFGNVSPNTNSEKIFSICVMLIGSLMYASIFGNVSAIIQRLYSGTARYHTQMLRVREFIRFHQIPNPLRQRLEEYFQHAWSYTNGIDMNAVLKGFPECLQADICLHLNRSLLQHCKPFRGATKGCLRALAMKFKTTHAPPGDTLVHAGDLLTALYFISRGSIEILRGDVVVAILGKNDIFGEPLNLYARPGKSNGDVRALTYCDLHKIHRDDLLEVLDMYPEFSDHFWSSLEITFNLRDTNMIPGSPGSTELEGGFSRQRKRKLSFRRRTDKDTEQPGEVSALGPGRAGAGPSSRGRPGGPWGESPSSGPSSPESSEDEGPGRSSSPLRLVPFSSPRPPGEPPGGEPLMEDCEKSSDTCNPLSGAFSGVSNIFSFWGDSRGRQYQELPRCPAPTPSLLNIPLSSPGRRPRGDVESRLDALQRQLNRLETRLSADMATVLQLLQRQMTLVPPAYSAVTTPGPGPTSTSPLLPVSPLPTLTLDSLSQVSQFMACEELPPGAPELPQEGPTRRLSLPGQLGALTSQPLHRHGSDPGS

fraction unbound [1] | fraction unbound [2] | hepatocyte CLint [3] [µL/min/1e6 cells] | hepatocyte CLint [4] [µL/min/1e6 cells] | logD (physchem) | bioavailability (in vivo) [%] | clearance [5] [mL/min/kg] | Vd [6] [L/kg] | half-life [7] [h] | half-life [8] [h] | pIC50 (Adenosine receptor A1) | pIC50 (B2 bradykinin receptor) | pIC50 (Mu-type opioid receptor) | solubility at 24 h [9] [µM] | pIC50 [10] | Compound | pIC50 [11]
0.034 | 0.02 | 43 | 56 | 2.3 | – | – | – | – | – | – | – | – | – | – | COc1ccc2c(c1)C[C@@H](C)N(CC(C)C)[C@@H]2c1ccc(/C=C/C(=O)O)cc1 | –
0.019 | 0.009 | 33 | 40 | 2.2 | – | – | – | – | – | – | – | – | – | – | CC(C)CN1CCc2cc(O)ccc2[C@@]1(C)c1ccc(/C=C/C(=O)O)cc1 | –
0.004 | 0.005 | 34 | 33 | 2.7 | > 70 | – | – | – | – | – | – | – | – | – | CC(C)CN1[C@H](c2c(F)cc(/C=C/C(=O)O)cc2F)c2ccc(O)cc2CC1(C)C | –
0.042 | 0.01 | 180 | 88 | 2 | – | – | – | – | – | – | – | – | – | – | COC[C@H](C)CN1[C@H](c2c(F)cc(/C=C/C(=O)O)cc2F)c2ccc(O)cc2CC1(C)C | –
0.016 | 0.021 | 24 | 45 | 2.5 | – | – | – | – | – | – | – | – | – | – | CC(C)CN1[C@H](c2ccc(/C=C/C(=O)O)cc2)c2ccccc2C[C@H]1C | –
0.011 | 0.023 | 74 | 78 | 2.1 | – | – | – | – | – | – | – | – | – | – | C[C@@H]1Cc2cc(O)ccc2[C@@H](c2c(F)cc(/C=C/C(=O)O)cc2F)N1CC(C)(C)F | –
0.0006 | 0.0006 | 20 | 11 | 3.7 | – | – | – | – | – | – | – | – | – | – | O=C(O)/C=C/c1ccc(C2c3ccc(O)cc3CCN2c2ccc(OC(F)(F)F)cc2)cc1 (stereo unspecified) | –
0.005 | 0.002 | 68 | 39 | 3.1 | – | – | – | – | – | – | – | – | – | – | C[C@H](CF)CN1[C@H](c2c(F)cc(/C=C/C(=O)O)cc2F)c2ccc(O)cc2CC1(C)C | –
0.11 | 0.035 | 7 | 6 | 1.5 | 66 | 21 | 5.9 | 7.4 | 5.8 | – | – | – | – | – | CC(C)CN1[C@H](c2ccc(/C=C/C(=O)O)cc2)c2ccc(O)cc2CC1(C)C | –
0.028 | 0.01 | 24 | 14 | 1.8 | > 70 | – | – | – | – | – | – | – | – | – | C[C@H](CF)CN1[C@H](c2ccc(/C=C/C(=O)O)cc2)c2ccc(O)cc2CC1(C)C | –
0.087 | 0.019 | 49 | 4 | 1.4 | – | – | – | – | – | – | – | – | – | – | CC(C)CN1CCc2cc(O)ccc2[C@@H]1c1ccc(/C=C/C(=O)O)cc1 | –
0.088 | 0.091 | 17 | 17 | 1.8 | – | – | – | – | – | – | – | – | – | – | Cc1cc2c(cc1O)CCN(CC(C)C)[C@@H]2c1ccc(/C=C/C(=O)O)cc1 | –
0.037 | 0.063 | 38 | 38 | 1.3 | 26 | 44 | 0.5 | 3 | 0.2 | – | – | – | – | – | CC(C)CN1CCc2cc(O)ccc2[C@H]1c1ccc(/C=C/C(=O)O)cc1 | –
0.053 | 0.038 | 110 | 45 | 1.6 | – | – | – | – | – | – | – | – | – | – | COC[C@H](C)CN1[C@H](c2c(F)cc(/C=C/C(=O)O)cc2F)c2ccc(O)cc2C[C@H]1C | –
0.12 | 0.16 | 27 | 7 | 1 | 3 | 63 | 0.6 | 1.9 | 0.2 | – | – | – | – | – | COC[C@H](C)CN1[C@H](c2ccc(/C=C/C(=O)O)cc2)c2ccc(O)cc2C[C@H]1C | –
0.012 | 0.012 | 87 | 67 | 2.4 | – | – | – | – | – | – | – | – | – | – | O=C(O)/C=C/c1ccc(C2c3ccc(O)cc3CCN2c2ccccc2)cc1 (stereo unspecified) | –
0.075 | 0.07 | 22 | 33 | 1.7 | 86 | 49 | 0.6 | 3.9 | 0.2 | 4.54 | 4.70 | 4.92 | > 1500 | < 4.52 | CC(C)CN1[C@H](c2ccc(/C=C/C(=O)O)cc2)c2ccc(O)cc2C[C@H]1C | < 4.52
0.013 | 0.015 | 15 | 18 | 2.7 | 33 | 19 | 1.6 | 5.6 | 2.4 | – | – | – | – | – | CC(C)CN1[C@H](C)Cc2cc(O)ccc2[C@@]1(C)c1ccc(/C=C/C(=O)O)cc1 | –
0.013 | 0.007 | 40 | 150 | 2.2 | – | – | – | – | – | – | – | – | – | – | O=C(O)/C=C/c1ccc(C2c3ccc(O)cc3CCN2Cc2ccccc2)cc1 (stereo unspecified) | –
0.01 | 0.009 | 94 | 170 | 2.5 | – | – | – | – | – | – | – | – | – | – | C[C@H](CF)CN1[C@H](c2c(F)cc(/C=C/C(=O)O)cc2F)c2ccc(O)cc2C[C@H]1C | –
0.025 | 0.007 | 59 | 19 | 2.3 | – | – | – | – | – | – | – | – | – | – | CC(C)(F)CN1[C@H](c2ccc(/C=C/C(=O)O)cc2)c2ccc(O)cc2CC1(C)C | –
0.0002 | 0.009 | 9 | 9 | 4.2 | – | 4.2 | 1.1 | 6.7 | 4.2 | – | – | – | – | – | C[C@@H]1Cc2cc(O)ccc2[C@@H](c2ccc(/C=C/C(=O)O)cc2)N1c1ccc(OC(F)(F)F)cc1 | –
0.063 | 0.024 | 32 | 9 | 1.6 | – | – | – | – | – | – | – | – | – | – | Cc1c(O)ccc2c1CCN(CC(C)C)[C@@H]2c1ccc(/C=C/C(=O)O)cc1 | –
0.024 | 0.026 | 47 | 100 | – | – | – | – | – | – | – | – | – | – | – | C[C@H](CF)CN1[C@H](c2ccc(/C=C/C(=O)O)cc2)c2ccc(O)cc2C[C@H]1C | –
